Legend:
[1] = test system: cancer stem cells (CD44high/CD24low) and cancer cells (CD44low/CD24high) of transformed MCF-10A or MCF-7 cells; conditions: doxorubicin, 0.1 mM metformin, or both; FIG. 3A
[2] = test system: MCF10A ER-Src xenograft tumors
[3] = test system: cancer stem cells (CD44high/CD24low) from MCF10A-ER-Src tumors; conditions: after 3 cycles of treatment (day 25); FIG. 4B
[4] = test system: non-transformed cells (MCF10A-ER-Src); test: Growth of non-transformed MCF10A-ER-Src cells with metformin (FIG. 1A); format: cell-based, human; conditions: 0.1 or 0.3 mM metformin, 24 hours
MCF10A ER-Src cells [5] = test: Morphological transformation of TAM-induced MCF10A ER-Src cells (phase-contrast); format: cell-based, human; conditions: 0.1 mM metformin and/or TAM for 36 hours; data not shown
MCF10A ER-Src cells [6] = test: Wound healing motility / invasion assay; format: cell-based, human; conditions: 0.1 mM metformin and/or TAM; data not shown
MCF10A-ER-Src cells [7] = test: Focus formation of TAM-treated MCF10A-ER-Src cells (FIG. 1B); format: cell-based, human
MCF10A ER-Src cells [8] = test: Colony formation assay in soft agar (FIG. 1B); format: cell-based, human; conditions: TAM-treated cells
MCF10A-ER-Src cells [9] = test: Mammosphere formation (FIG. 1B); format: cell-based, human; conditions: TAM-treated cells
[10] = test system: mammospheres derived from all four breast cancer cell lines (MCF10A ER-Src, MCF7, SKBR3, MDA-MB-468); test: Mammosphere growth, 6-day old mammospheres (FIG. 2); format: cell-based, human; conditions: 0.1 mM metformin, within 48 hours
[11] = test system: sorted cancer stem cells and non-stem cancer cells of MCF10A ER-Src, MCF7, SKBR3 and MDA-MB-468; test: Growth of sorted cancer stem cells and non-stem cancer cells (FIG. 3B); format: cell-based, human; conditions: 0.1 mM metformin, 0, 24, 48 hours, all four cancer cell lines
[12] = test system: MCF10A-ER-Src cancer stem cells; test: Tumor formation in nude mice by metformin-pretreated cancer stem cells (FIG. 3C); format: in vivo; conditions: cells treated with 0.1 mM metformin for 1 hour prior to injection, month after injection
[13] = general statement; cited from earlier work

Row | Structure (SMILES) | killing of cancer stem cells versus cancer cells in the mixed transformed population [1] | decrease in tumor volume ([2]; after 15 days of treatment (3 cycles every 5 days, i.p.), 4 mg/kg doxorubicin) | time until tumor growth resumed after treatment ([2]; after treatment with doxorubicin alone, FIG. 4A) | rate of tumor growth after relapse ([2]; compared with absence of treatment) | tumor volume after an additional 10 days ([2]; day 35) | cancer stem cells in tumors [3] | growth of non-transformed cells [4] | morphological transformation (MCF10A ER-Src cells [5]) | invasive growth in wound-healing assays (MCF10A ER-Src cells [6]) | focus formation (MCF10A-ER-Src cells [7]) | formation of colonies in soft agar (MCF10A ER-Src cells [8]) | generation of mammospheres (MCF10A-ER-Src cells [9]) | number of mammospheres [10] | effect on sorted standard (non-stem) cancer cell population [11] | susceptibility of sorted cancer stem cells [11] | ability of cancer stem cells to form tumors in nude mice [12] | effect on tumors / tumor volume ([2]; after 15 days of treatment (3 cycles every 5 days, i.p.), 4 mg/kg doxorubicin, 100 μg/ml metformin, or both) | crossing of the blood brain barrier [13]
1 | COc1cccc2c1C(=O)c1c(O)c3c(c(O)c1C2=O)C[C@@](O)(C(=O)CO)C[C@@H]3O[C@H]1C[C@H](N)[C@H](O)[C@H](C)O1 [doxorubicin] | kills cancer cells, but not cancer stem cells | 2 fold | 20 days | comparable to that observed in the initial disease | further reduction in tumor volume | easily detected |  |  |  |  |  |  |  |  |  |  |  | 
2 | CN(C)C(=N)N=C(N)N [metformin] | preferentially killed cancer stem cells |  |  |  |  |  | does not affect the growth of non-transformed cells | strongly inhibited | strongly inhibited | strongly inhibited | strongly inhibited | strongly inhibited | dramatic reduction in the number of mammospheres | essentially unaffected | quite susceptible | blocked the ability of these cells to form tumors | little effect | can cross the blood brain barrier

From patent US20120220664A1, “USE OF METFORMIN IN CANCER TREATMENT AND PREVENTION” (priority 2009, published 2012)
